# Molecular target: T1, rat B1R (bradykinin receptor 1) (Rattus norvegicus, UniProt P97583)
# T1 construct: expressed in transfected cells; host or cells: CHO K1 cells
# T1 sequence (P97583 1-337): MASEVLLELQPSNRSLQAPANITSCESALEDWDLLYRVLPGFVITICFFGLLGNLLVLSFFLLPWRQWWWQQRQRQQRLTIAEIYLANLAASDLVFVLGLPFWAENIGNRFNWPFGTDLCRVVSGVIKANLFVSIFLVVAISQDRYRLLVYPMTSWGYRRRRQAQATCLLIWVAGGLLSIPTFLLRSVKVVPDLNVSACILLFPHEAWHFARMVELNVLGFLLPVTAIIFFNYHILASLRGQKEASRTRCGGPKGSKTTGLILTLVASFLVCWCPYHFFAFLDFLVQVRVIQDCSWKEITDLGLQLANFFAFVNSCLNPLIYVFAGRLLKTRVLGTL
# Assay: FLIPR Ca2+ assay (Fluo-4) on CHO K1 cells stably transfected with the B1R gene of the rat (rB1R cells): % inhibition at 10 μM / IC50, agonist Des-Arg9-bradykinin
# Format: cell-based
# Settings: CHO-K1, rat B1R
# In short: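 Antagonism is measured as the drop in peak Fluo-4 Ca2+ signal when the EC80 agonist follows 10–20 min compound exposure. The single-point screen uses 10 μM; IC50 uses several concentrations. Values are given as % of maximal achievable inhibition.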
row,SMILES,inhibition at 10 µM [%]
1,"O=C(c1ccc2c(c1)C(N(C(=O)c1ccccc1Cl)C1CC1)CC2)N1CCC2(CCN(Cc3cc(F)ccc3F)CC2)C1 (centres unmarked) [IND_CC-522, 2-Chloro-N-cyclopropyl-N-[6-[8-[(2,5-difluoro-phenyl)-methyl]-2,8-diazaspiro[4.5]decane-2-carbonyl]-2,3-dihydro-1H-inden-1-yl]-benzamide]",55
2,"O=C(c1ccc2c(c1)C(N(C(=O)c1ccccc1Cl)C1CC1)CC2)N1CCC2(CCN(Cc3ccc(F)cc3F)CC2)C1 (centres unmarked) [IND_CC-523, 2-Chloro-N-cyclopropyl-N-[6-[8-[(2,4-difluoro-phenyl)-methyl]-2,8-diazaspiro[4.5]decane-2-carbonyl]-2,3-dihydro-1H-inden-1-yl]-benzamide]",68
3,"Cc1nc[nH]c1CN1CCC2(CC1)CCN(C(=O)c1ccc3c(c1)C(NC(=O)c1ccccc1Cl)CC3)CC2 (centres unmarked) [IND_CC-527, 2-Chloro-N-[6-[9-[(5-methyl-3H-imidazol-4-yl)-methyl]-3,9-diazaspiro[5.5]undecane-3-carbonyl]-2,3-dihydro-1H-inden-1-yl]-benzamide]",98
4,"O=C(NC1CCc2ccc(C(=O)N3CCC4(CCN(Cc5c(F)cccc5Cl)CC4)CC3)cc21)c1ccccc1Cl (centres unmarked) [IND_CC-530, 2-Chloro-N-[6-[9-[(2-chloro-6-fluoro-phenyl)-methyl]-3,9-diazaspiro[5.5]undecane-3-carbonyl]-2,3-dihydro-1H-inden-1-yl]-benzamide]",96
5,"Cc1noc(C)c1CN1CCC2(CC1)CCN(C(=O)c1ccc3c(c1)C(NC(=O)c1ccccc1Cl)CC3)CC2 (centres unmarked) [IND_CC-532, 2-Chloro-N-[6-[9-[(3,5-dimethyl-isoxazol-4-yl)-methyl]-3,9-diazaspiro[5.5]undecane-3-carbonyl]-2,3-dihydro-1H-inden-1-yl]-benzamide]",62
6,"N#Cc1ccc(CN2CCC3(CC2)CCN(C(=O)c2ccc4c(c2)C(NC(=O)c2ccccc2Cl)CC4)CC3)cc1 (centres unmarked) [IND_CC-533, 2-Chloro-N-[6-[9-[(4-cyano-phenyl)-methyl]-3,9-diazaspiro[5.5]undecane-3-carbonyl]-2,3-dihydro-1H-inden-1-yl]-benzamide]",74
7,"N#Cc1cccc(CN2CCC3(CC2)CCN(C(=O)c2ccc4c(c2)C(NC(=O)c2ccccc2Cl)CC4)CC3)c1 (centres unmarked) [IND_CC-534, 2-Chloro-N-[6-[9-[(3-cyano-phenyl)-methyl]-3,9-diazaspiro[5.5]undecane-3-carbonyl]-2,3-dihydro-1H-inden-1-yl]-benzamide]",102
8,"Cn1cncc1CN1CCC2(CC1)CCN(C(=O)c1ccc3c(c1)C(N(C(=O)c1ccccc1Cl)C1CC1)CC3)C2 (centres unmarked) [IND_CC-536, 2-Chloro-N-cyclopropyl-N-[6-[8-[(3-methyl-3H-imidazol-4-yl)-methyl]-2,8-diazaspiro[4.5]decane-2-carbonyl]-2,3-dihydro-1H-inden-1-yl]-benzamide]",54
9,"O=C(c1ccc2c(c1)C(N(C(=O)c1ccccc1Cl)C1CC1)CC2)N1CCC2(CCN(Cc3c(F)cccc3Cl)CC2)C1 (centres unmarked) [IND_CC-538, 2-Chloro-N-[6-[8-[(2-chloro-6-fluoro-phenyl)-methyl]-2,8-diazaspiro[4.5]-decane-2-carbonyl]-2,3-dihydro-1H-inden-1-yl]-N-cyclopropyl-benzamide]",72
10,"N#Cc1ccc(CN2CCC3(CC2)CCN(C(=O)c2ccc4c(c2)C(N(C(=O)c2ccccc2Cl)C2CC2)CC4)C3)cc1 (centres unmarked) [IND_CC-539, 2-Chloro-N-[6-[8-[(4-cyano-phenyl)-methyl]-2,8-diazaspiro[4.5]decane-2-carbonyl]-2,3-dihydro-1H-inden-1-yl]-N-cyclopropyl-benzamide]",75
11,"N#Cc1cccc(CN2CCC3(CC2)CCN(C(=O)c2ccc4c(c2)C(N(C(=O)c2ccccc2Cl)C2CC2)CC4)C3)c1 (centres unmarked) [IND_CC-540, 2-Chloro-N-[6-[8-[(3-cyano-phenyl)-methyl]-2,8-diazaspiro[4.5]decane-2-carbonyl]-2,3-dihydro-1H-inden-1-yl]-N-cyclopropyl-benzamide]",82
12,"O=C(NC1CCc2ccc(C(=O)N3CCC4(CCN(Cc5cc(F)ccc5F)CC4)C3)cc21)c1ccccc1Cl (centres unmarked) [IND_CC-543, 2-Chloro-N-[6-[8-[(2,5-difluoro-phenyl)-methyl]-2,8-diazaspiro[4.5]decane-2-carbonyl]-2,3-dihydro-1H-inden-1-yl]-benzamide]",102
13,"COc1cccc(F)c1CN1CCC2(CC1)CCN(C(=O)c1ccc3c(c1)C(NC(=O)c1ccccc1Cl)CC3)C2 (centres unmarked) [IND_CC-546, 2-Chloro-N-[6-[8-[(2-fluoro-6-methoxy-phenyl)-methyl]-2,8-diazaspiro[4.5]decane-2-carbonyl]-2,3-dihydro-1H-inden-1-yl]-benzamide]",99
14,"CN(C(=O)c1ccccc1Cl)C1CCc2ccc(C(=O)N3CCC4(CCN(Cc5ccc(F)c(F)c5)CC4)C3)cc21 (centres unmarked) [IND_CC-549, 2-Chloro-N-[6-[8-[(3,4-difluoro-phenyl)-methyl]-2,8-diazaspiro[4.5]decane-2-carbonyl]-2,3-dihydro-1H-inden-1-yl]-N-methyl-benzamide]",60

# Other lines, results leading:
row,inhibition at 10 µM [%],SMILES
1,62,"COc1ccc(CN2CCC3(CC2)CCN(C(=O)c2ccc4c(c2)C(N(C(=O)c2ccccc2Cl)C2CC2)CC4)C3)cc1F (centres unmarked) [IND_CC-524, 2-Chloro-N-cyclopropyl-N-[6-[8-[(3-fluoro-4-methoxy-phenyl)-methyl]-2,8-diazaspiro[4.5]decane-2-carbonyl]-2,3-dihydro-1H-inden-1-yl]-benzamide]"
2,62,"COc1cccc(F)c1CN1CCC2(CC1)CCN(C(=O)c1ccc3c(c1)C(N(C(=O)c1ccccc1Cl)C1CC1)CC3)C2 (centres unmarked) [IND_CC-525, 2-Chloro-N-cyclopropyl-N-[6-[8-[(2-fluoro-6-methoxy-phenyl)-methyl]-2,8-diazaspiro[4.5]decane-2-carbonyl]-2,3-dihydro-1H-inden-1-yl]-benzamide]"
3,104,"O=C(NC1CCc2ccc(C(=O)N3CCC4(CCN(Cc5ccc(F)cc5Cl)CC4)CC3)cc21)c1ccccc1Cl (centres unmarked) [IND_CC-529, 2-Chloro-N-[6-[9-[(2-chloro-4-fluoro-phenyl)-methyl]-3,9-diazaspiro[5.5]undecane-3-carbonyl]-2,3-dihydro-1H-inden-1-yl]-benzamide]"
4,81,"Cc1c(CN2CCC3(CC2)CCN(C(=O)c2ccc4c(c2)C(NC(=O)c2ccccc2Cl)CC4)CC3)cnn1C (centres unmarked) [IND_CC-531, 2-Chloro-N-[6-[9-[(1,5-dimethyl-1H-pyrazol-4-yl)-methyl]-3,9-diazaspiro[5.5]undecane-3-carbonyl]-2,3-dihydro-1H-inden-1-yl]-benzamide]"
5,62,"O=C(c1ccc2c(c1)C(N(C(=O)c1ccccc1Cl)C1CC1)CC2)N1CCC2(CCN(Cc3ccc(F)cc3Cl)CC2)C1 (centres unmarked) [IND_CC-537, 2-Chloro-N-[6-[8-[(2-chloro-4-fluoro-phenyl)-methyl]-2,8-diazaspiro[4.5]-decane-2-carbonyl]-2,3-dihydro-1H-inden-1-yl]-N-cyclopropyl-benzamide]"
6,65,"N#Cc1ccccc1CN1CCC2(CC1)CCN(C(=O)c1ccc3c(c1)C(N(C(=O)c1ccccc1Cl)C1CC1)CC3)C2 (centres unmarked) [IND_CC-541, 2-Chloro-N-[6-[8-[(2-cyano-phenyl)-methyl]-2,8-diazaspiro[4.5]decane-2-carbonyl]-2,3-dihydro-1H-inden-1-yl]-N-cyclopropyl-benzamide]"
7,99,"O=C(NC1CCc2ccc(C(=O)N3CCC4(CCN(Cc5ccc(F)cc5F)CC4)C3)cc21)c1ccccc1Cl (centres unmarked) [IND_CC-544, 2-Chloro-N-[6-[8-[(2,4-difluoro-phenyl)-methyl]-2,8-diazaspiro[4.5]decane-2-carbonyl]-2,3-dihydro-1H-inden-1-yl]-benzamide]"
8,105,"COc1ccc(CN2CCC3(CC2)CCN(C(=O)c2ccc4c(c2)C(NC(=O)c2ccccc2Cl)CC4)C3)cc1F (centres unmarked) [IND_CC-545, 2-Chloro-N-[6-[8-[(3-fluoro-4-methoxy-phenyl)-methyl]-2,8-diazaspiro[4.5]decane-2-carbonyl]-2,3-dihydro-1H-inden-1-yl]-benzamide]"
9,71,"O=C(NC1CCc2ccc(C(=O)N3CCC4(CCN(Cc5cc(F)ccc5F)CC4)C3)cc21)c1sccc1Cl (centres unmarked) [IND_CC-547, 3-Chloro-N-[6-[8-[(2,5-difluoro-phenyl)-methyl]-2,8-diazaspiro[4.5]decane-2-carbonyl]-2,3-dihydro-1H-inden-1-yl]-thiophene-2-carboxylic acid amide]"
10,66,"COc1ccc(CN2CCC3(CC2)CCN(C(=O)c2ccc4c(c2)C(NC(=O)c2sccc2Cl)CC4)C3)cc1F (centres unmarked) [IND_CC-548, 3-Chloro-N-[6-[8-[(3-fluoro-4-methoxy-phenyl)-methyl]-2,8-diazaspiro[4.5]decane-2-carbonyl]-2,3-dihydro-1H-inden-1-yl]-thiophene-2-carboxylic acid amide]"
11,62,"CN(C(=O)c1ccccc1Cl)C1CCc2ccc(C(=O)N3CCC4(CCN(Cc5cc(F)ccc5F)CC4)C3)cc21 (centres unmarked) [IND_CC-550, 2-Chloro-N-[6-[8-[(2,5-difluoro-phenyl)-methyl]-2,8-diazaspiro[4.5]decane-2-carbonyl]-2,3-dihydro-1H-inden-1-yl]-N-methyl-benzamide]"
12,55,"CN(C(=O)c1ccccc1Cl)C1CCc2ccc(C(=O)N3CCC4(CCN(Cc5ccc(F)cc5F)CC4)C3)cc21 (centres unmarked) [IND_CC-551, 2-Chloro-N-[6-[8-[(2,4-difluoro-phenyl)-methyl]-2,8-diazaspiro[4.5]decane-2-carbonyl]-2,3-dihydro-1H-inden-1-yl]-N-methyl-benzamide]"

# Reference: patent US8455475B2 (Gruenenthal GmbH, priority 2009, dated 2013)
